# Measurements: US20220031800A1, “PEPTIDES FOR TREATING NON-EXUDATIVE MACULAR DEGENERATION AND OTHER DISORDERS OF THE EYE” (Allegro Pharmaceuticals, LLC, priority 2019, published 2022)
# Square brackets hold non-standard residues; d marks the D form. Peptide text beside a SMILES is read from it. Cya = N[C@@H](CS(=O)(=O)O)C(=O)O
# Key:
# [1] = test system: primary human RPE cells; experiment: Mitochondrial membrane potential (JC-1) in primary human RPE cells exposed to hydroquinone; type: cell-based; details: 0.4 mM risuteganib co-treatment with HQ 125-180 uM
# Protocol: Purpose: To determine if risuteganib protects against hydroquinone (HQ)-mediated cell injury, elevated ROS level and reduced mitochondrial membrane potential (Δψm) in cultured human RPE cells. Elevated ROS levels increase oxidative stress in the cells, leading to reduced cell health and cell death. Loss of ΔΨm is a marker for early cell death. Methods: Primary human RPE cells were seeded on collagen-coated 96-well plates in triplicates at 8K, 10K and […] cells/well, respectively. Cells reached 80% to 100% confluence 24 hours after plating, and confluent cells were then grown for an additional 4 or 5 days until growth was density arrested. On day 6 after plating, cells in the plate upper half were loaded with 20 μM CM-H2DCFDA (measures ROS level) and in the plate lower half with 10 μM JC-1 (measures Δψm) for 30 minutes at 37° C. […] For the ROS and Δψm assays, a fluorescence plate reader was used to quantify ROS production (490-nm excitation, 522-nm emission), and green monomer of JC-1 (490-nm excitation, 522-nm emission) and red JC-1 aggregate (535-nm excitation, 590-nm emission), respectively. […] The WST reagent was quantified with a plate reader at 440 nm and a reference wavelength at 690 nm. Data were normalized to untreated control as 100% and were expressed as the mean±SD.
# [2] = test system: primary mouse retinal neuron cells; experiment: Trypan blue viability of primary mouse retinal neuron cells exposed to kainic acid; type: cell-based, CD1 mice; details: 1.0 mg/mL risuteganib alone
# Protocol: Purpose: Investigate neuroprotective properties of risuteganib in primary mouse retinal neuron cells exposed to kainic acid, a neuroexcitatory compound that activates glutamate receptors, resulting in overstimulation and cell death.
# Methods: Fresh retina were collected from CD1 mice and then mechanically dissociated with sterile Pasteur pipette. Cell suspensions were then dispensed into petri dish and incubated for 6 hours. Cells were then exposed to the experimental conditions: (1) untreated control, (2) 1.0 mg/mL risuteganib, (3) 500 μM kainic acid (KA), and (4) 1.0 mg/mL risuteganib for 24 hours before 500 μM kainic acid exposure. 8 hours after kainic acid treatment, dead and live cell numbers were measured using Trypan blue exclusion assay on a hemocytometer.
# [3] = test system: study eye of subjects with intermediate non-exudative AMD; experiment: Humphrey visual field assessment (mean deviation, pattern standard deviation); type: in vivo, human
# Description: Twenty-five subjects were assigned to Group 1 and fifteen (15) subjects were assigned to Group 2.
# [4] = test system: human retinal Müller cells (MIO-M1); experiment: Reactive oxygen species level in human Müller cells (MIO-M1); type: cell-based; details: 1× concentration (clinical dose), 24 hours
# Protocol: Purpose: To determine the effects of risuteganib and anti-VEGF drugs on reactive oxygen species (ROS) levels in cultured human retinal Müller cells (MIO-M1). Elevated ROS levels can disrupt normal cellular functions, leading to reduced cell health and possible cell death.
# Methods: The immortalized human retinal Müller cell line (MIO-M1) was obtained from the Department of Cell Biology of the University College, London. Cells were cultured in Dulbecco's Modified Eagle's Medium (DMEM) and plated in 24-well plates for 24 hours before treatment with 1× concentration of 1 mg/50 μL ALG-1001, ranibizumab, bevacizumab, or aflibercept. Dosage was based on clinical dose of each compound. The experiments were repeated 3 times with 6 replicates each. After 24 hours drug treatment, ROS level was measured using the fluorescent dye 2′,7′-dichlorodihydrofluorescein diacetate. The signals were read using the Biotek Synergy HT plate reader with EX filter in 482 nm and EM filter in 520 nm. Results were normalized to untreated control as 100%. Statistical analysis was performed in GraphPad Prism software program.
# [5] = test system: study eye of subjects with intermediate non-exudative AMD; experiment: Microperimetry (mean retinal sensitivity, number of loci summed); type: in vivo, human
# [6] = Week 12, Group 2 (1 mg IVT day 1 + wk 16)
# [7] = Week 12, risuteganib group (1 mg IVT day 1 + wk 16)
# [8] = Week 12 change, Group 2 (1 mg IVT day 1 + wk 16)
# [9] = Week 12 change, risuteganib group (1 mg IVT day 1 + wk 16)
# [10] = Week 32, Group 1 crossover (sham day 1, 1 mg IVT wk 16)
# [11] = Week 32, Group 2 (1 mg IVT day 1 + wk 16)
# [12] = Week 32, risuteganib group (1 mg IVT day 1 + wk 16)
# [13] = Week 32, sham group after crossover to 1 risuteganib injection (wk 16)
# [14] = Week 32 change, Group 1 crossover (sham day 1, 1 mg IVT wk 16)
# [15] = Week 32 change, Group 2 (1 mg IVT day 1 + wk 16)
# [16] = Week 32 change, risuteganib group (1 mg IVT day 1 + wk 16)
# [17] = Week 32 change, sham group after crossover to 1 risuteganib injection (wk 16)
smiles,measurement,setting,value
"C[C@@H](O)[C@H](NC(=O)[C@H](CS(=O)(=O)O)NC(=O)CNC(=O)[C@H](CCCNC(=N)N)NC(=O)CN)C(=O)N1CCC[C@H]1C(=O)O [risuteganib, Glycyl-L-arginylglycyl-3-sulfo-L-alanyl-L-threonyl-L-proline] (H-GRG[Cya]TP-OH)",Improvement of HQ-reduced Δψm,[1],16%
same,"Change in cell viability, treatment alone",[2],did not induce detectable change in cell viability
same,"Humphrey visual field pattern standard deviation, mean",[3]; [6],3.350 dB
same,"Humphrey visual field pattern standard deviation, median",[3]; [6],1.630 dB
same,"Humphrey visual field mean deviation, mean",[3]; [7],−5.502 dB
same,"Humphrey visual field mean deviation, median",[3]; [7],−3.500 dB
same,"Humphrey visual field pattern standard deviation change, median",[3]; [8],−0.090 dB
same,"Humphrey visual field mean deviation change, mean",[3]; [9],0.302 dB
same,"Humphrey visual field mean deviation change, median",[3]; [9],0.100 dB
same,"Humphrey visual field pattern standard deviation, mean",[3]; [10],2.790 dB
same,"Humphrey visual field pattern standard deviation, median",[3]; [10],2.410 dB
same,"Humphrey visual field pattern standard deviation, mean",[3]; [11],3.113 dB
same,"Humphrey visual field pattern standard deviation, median",[3]; [11],2.050 dB
same,"Humphrey visual field mean deviation, mean",[3]; [12],−5.211 dB
same,"Humphrey visual field mean deviation, median",[3]; [12],−3.470 dB
same,"Humphrey visual field mean deviation, mean",[3]; [13],−4.055 dB
same,"Humphrey visual field mean deviation, median",[3]; [13],−2.260 dB
same,"Humphrey visual field pattern standard deviation change, mean",[3]; [14],0.469 dB
same,"Humphrey visual field pattern standard deviation change, median",[3]; [14],0.360 dB
same,"Humphrey visual field pattern standard deviation change, mean",[3]; [15],0.115 dB
same,"Humphrey visual field pattern standard deviation change, median",[3]; [15],0.045 dB
same,"Humphrey visual field mean deviation change, mean",[3]; [16],0.191 dB
same,"Humphrey visual field mean deviation change, median",[3]; [16],−0.040 dB
same,"Humphrey visual field mean deviation change, mean",[3]; [17],0.158 dB
same,"Humphrey visual field mean deviation change, median",[3]; [17],−0.070 dB
same,Change in ROS level compared to untreated control,[4],−19%
same,"Microperimetry mean sensitivity, mean",[5]; [6],7.52 dB
same,"Microperimetry mean sensitivity, median",[5]; [6],7.50 dB
same,"Microperimetry number of loci summed (reduced sensitivity), mean",[5]; [6],84.9
same,"Microperimetry number of loci summed (reduced sensitivity), median",[5]; [6],86.5
same,"Microperimetry mean sensitivity change, median",[5]; [8],−1.50 dB
same,"Microperimetry mean sensitivity, mean",[5]; [10],11.44 dB
same,"Microperimetry mean sensitivity, median",[5]; [10],13.70 dB
same,"Microperimetry number of loci summed (reduced sensitivity), mean",[5]; [10],67.6
same,"Microperimetry number of loci summed (reduced sensitivity), median",[5]; [10],60.0
same,"Microperimetry mean sensitivity, mean",[5]; [11],8.25 dB
same,"Microperimetry mean sensitivity, median",[5]; [11],8.50 dB
same,"Microperimetry number of loci summed (reduced sensitivity), median",[5]; [11],79.5
same,"Microperimetry mean sensitivity change, median",[5]; [14],−0.20 dB
same,"Microperimetry number of loci summed change, mean",[5]; [14],7.9
same,"Microperimetry mean sensitivity change, median",[5]; [15],−0.40 dB
same,"Microperimetry number of loci summed change, mean",[5]; [15],1.0
same,Increase (improvement) in mean retinal sensitivity,[5]; risuteganib responders at Week 32 (FIG. 5),2.2 dB
